Entries after “also recorded” stand apart in the source; their conditions may differ.
Tests used:
[1] = test system: soleus muscle fibres from healthy and EAMG rats; test: Rheobase current (muscle fibre excitability) in soleus muscle fibres; format: cell-based, rat; conditions: 20 μM NMD670; soleus muscle fibres from healthy (n=20) and EAMG (n=12) rats, before vs after addition
Description: (§1) To allow for measurements of electrophysiological properties at the cellular level and for measurements of force, it was necessary to isolate nerve-muscle preparations from the rats. To this end, animals were sacrificed, and muscles were dissected out with 1 to 3 cm of intact nerve. The nerve-muscle preparations were then transferred to the organ baths used for the particular experiments (see below) and perfused with Normal Krebs-Ringer (NKR) solution, consisting of (in mM); 122 NaCl, 25 NaHCO3, 2.8 KCl, 1.2 KH2PO4, 1.2 MgSO4 1.27 CaCl2 and 5 D-glucose. This NKR solution was continuously gassed with a mixture of 95% oxygen and 5% CO2, to maintain a pH of approx. 7.4. In some experiments methyl-sulphate was used to replace Cl^− in the solution. All chemicals used were of analytical grade.

[2] = test system: muscle fibres from EAMG rats; test: Endplate potentials (EPP) in isolated nerve-muscle preparations; format: cell-based, rat; conditions: 20 μM NMD670
Description: The effect of CIC-1 inhibition on neuromuscular transmission was investigated at the cellular level by recording endplate potentials (EPPs) with intracellular electrodes in isolated nerve-muscle preparations from healthy and EAMG rats (score 0-2). Muscle preparations used in the experiments were diaphragm or levator longus auris (LAL) providing the advantage to dissect out 1-3 cm of intact motor nerve. After dissection, preparations were immediately mounted in a chamber perfused with NKR at a temperature of 30-31° C., pH 7.4-7.5. […]

[3] = test system: EAMG muscle fibres; test: Intracellular action potential measurement during nerve stimulation; format: cell-based, rat; conditions: 20 μM NMD670; 30 Hz nerve stimulation; EAMG muscle fibres (n=110)
Description: as §1

[4] = test system: EAMG rats; test: 14-day dosing in EAMG animals: rotarod test; format: in vivo, rat
Experimental: To induce EAMG, 250 μL of emulsion of Complete Freund's Adjuvant, consisting of heat-inactivated Mycobacterium tuberculosis H37Ra in non-metabolizable oils, together with Phosphate-Buffered Saline (PBS) and 80 μg of the extracellular α-domain peptide fragment of the human nicotinic acetylcholine receptor (antigen) was injected subcutaneously in seven-week-old, anaesthetized Lewis rats. The disease-inducing antigen was supplied by the Hellenic Pasteur institute3. The emulsion was deposited at the tail base, left hindleg, and right foreleg. After injection, animals were allowed to recover and returned to their home cage maintained in ventilated racks under controlled temperature (20 to 22° C.) and humidity (˜55%) control, under a 12-h light/12-h dark cycle with food and water provided ad libitum. The animals had pathogen free status and the housing and changing system was designed to assure that the pathogen free status was preserved during the study. The EAMG rats were observed, weighed, and scored for MG symptoms weekly until symptoms of MG developed, whereafter animals were observed daily.
Sixteen (16) rats with an EAMG clinical score of 2 were allocated to the study and stratified to one of the two treatment groups (vehicle vs NMD670, 8 rats per group). Stratification was based on rotarod endurance and grip strength performance with the aim to obtain similar average starting points for the two groups. Grip strength and Rotarod performance were measured prior to treatment (day 0) and on days 1, 4, 7, 9, 11 and 14 during treatment. The treatment was administered by per oral gavage. Dosing was twice daily with 20 mg/kg NMD670 or vehicle (sterile water) for 14 days unless the rat was subjected to premature termination due to reaching humane endpoints. The dose solutions for the treatment groups were blinded. Thus, experimenters and subsequent analysis were blinded as to which group received CIC-1 inhibitor and which group received vehicle. Full analysis of data and statistics were concluded before unblinding the data. Plasma samples were obtained on days 0, 1 and 14, with muscle samples obtained on day 14 at termination.
Rotarod test was conducted on a Touchscreen Rotarod from Panlab (Model LE8305, Harward Apparatus). For testing the running performance, the rat was placed in one of 4 running lanes on the rotating rod that rats were challenged to run on. Prior to the first test on the rotarod on Day 0, the rat was allowed a 1-minute run at 4 rotations per minute (RPM), to familiarize with the apparatus. The rat was then allowed at least 5 minutes of rest before the test was conducted. To test the running performance, the rat was challenged with a protocol consisting of constantly accelerating speed from 4 to 40 RPM over 420 seconds. Test occasions consisted of 3 runs with at least 5 and no more than 15 minutes of rest between each run. Performance was quantified by the duration that the rat was able to remain on the rotating rod. Average values of the 3 runs per test occasion were used for further data processing.

[5] = test system: patients with myasthenia gravis; test: Phase IIA clinical trial (Part C): Quantitative Myasthenia Gravis test; format: in vivo, human
Experimental: For each subject, the study consisted of three study periods during which subjects received either a single dose of NMD670 400 mg, NMD670 1200 mg, or placebo with a 7-day washout period between visits. On these study visits, subjects were asked to refrain from their regular dose of pyridostigmine (if applicable) from 14 h before dosing until after the last pharmacodynamic measurement on Day 1 (see Table 13: Visit and Assessment Schedule). The cross-over design allowed intra-individual comparison of drug effects versus placebo (see FIG. 16). A balanced design was applied to control for first-order carry-over effects.
Part C was a double-blinded, placebo-controlled, three-way cross-over comparison of two single oral doses of NMD670 in men and women with stable symptomatic myasthenia gravis. 12 patients were enrolled. For each subject, the study consisted of three study periods during which subjects received either a single dose of NMD670 or placebo. On these study visits, subjects were asked to refrain from their regular dose of pyridostigmine (if applicable) for 14 hours before dosing. Single doses were administered in randomized order (400 mg free acid, 1200 mg free acid, or placebo p.o.), with a 7-day washout period between visits (FIG. 16). NMD670/placebo was administered with 240 ml of still water.
The Quantitative Myasthenia Gravis (QMG) total score (Barohn et al., Ann N YAcad Sci 1998, 841:769-72) is a validated clinical measure of sentinel muscle groups developed by the Myasthenia Gravis Foundation of America and the current clinical gold standard recommended for all prospective studies in MG. The QMG test is a physician-rated test using 13 assessments (see table 1), including facial strength, swallowing, respiratory, grip strength, and duration of time that limbs can be maintained in outstretched positions. Each of the 13 items is scored from 0 (none) to 3 (severe).
The total score can range from 0 to 39.

[6] = 400 mg group, 3-hour measurements
[7] = 1200 mg group, 3- and 5-hour measurements
[8] = single doses, 12 patients with MG

C[C@H](Oc1ccc(Br)cc1-c1ccon1)C(=O)O [NMD670, (2S)-2-[4-bromo-2-(1,2-oxazol-3-yl)phenoxy]propanoic acid]
Rheobase current [1]: significantly reduced rheobase current
Endplate potential (EPP) in muscle fibres from EAMG rats vs healthy rats [2]: could be restored
Increase of endplate potential (EPP) amplitude ([2]; EAMG rats, throughout a 12 Hz train of 30 stimulations, 82 fibres vs 68 fibres without inhibitor): more than 35%
Success of repeated action potential excitations [3]: improved markedly; also recorded: AP excitation failures were less common
Endurance on rotarod over vehicle group throughout the period of treatment ([4]; 14-day chronic dosing, 20 mg/kg twice daily): higher endurance on rotarod
Rotarod performance (latency to fall in seconds) ([4]; day 0 (prior to treatment), 20 mg/kg twice daily per oral, P = 0.9478 vs vehicle): 28.5 ± 7.3 s
Rotarod performance (latency to fall in seconds) ([4]; day 1, 20 mg/kg twice daily per oral, P > 0.9999 vs vehicle): 38.4 ± 8.7 s
Rotarod performance (latency to fall in seconds) ([4]; day 4, 20 mg/kg twice daily per oral, P = 0.4613 vs vehicle): 37.8 ± 10.1 s
Rotarod performance (latency to fall in seconds) ([4]; day 7, 20 mg/kg twice daily per oral, P = 0.7852 vs vehicle): 29.1 ± 8.8 s
Rotarod performance (latency to fall in seconds) ([4]; day 9, 20 mg/kg twice daily per oral, P = 0.6753 vs vehicle): 27.5 ± 9.1 s
Rotarod performance (latency to fall in seconds) ([4]; day 11, 20 mg/kg twice daily per oral, P = 0.0335 vs vehicle): 35.5 ± 12.6 s
Rotarod performance (latency to fall in seconds) ([4]; day 14, 20 mg/kg twice daily per oral, P = 0.8122 vs vehicle): 19.0 ± 5.7 s
Patients achieving a 2-point or larger improvement in QMG total score [5, 6]: 6 of 12
QMG responder rate (2-point or larger improvement from baseline compared to placebo) [5, 6]: 50%
Patients achieving a 2-point or larger improvement in QMG total score ([5]; 400 mg group, 5-hour): 5 of 12
QMG responder rate (2-point or larger improvement from baseline compared to placebo) ([5]; 400 mg group, 5-hour): 42%
QMG total score, LSM change over placebo (given as positive improvement) ([5]; 400 mg treatment group, 3-hour timepoint, p=0.12): 1.3 points
QMG total score, Arithmetic Mean change (given as positive improvement) ([5]; 400 mg treatment group, 5-hour timepoint): 2.1 points
QMG total score, LSM change over placebo (given as positive improvement) ([5]; 400 mg treatment group, 5-hour timepoint, p=0.02): 1.7 points
QMG total score, CFB over placebo, Arithmetic mean ([5]; 400 mg versus placebo, 3-hour): −1.6 points
QMG total score, CFB over placebo, LSM ([5]; 400 mg versus placebo, 3-hour, p = 0.12): −1.2 points
QMG total score, CFB over placebo, Arithmetic mean ([5]; 400 mg versus placebo, 5-hour): −2.1 points
QMG total score, CFB over placebo, LSM ([5]; 400 mg versus placebo, 5-hour, p = 0.02): −1.7 points
QMG total score, CFB over placebo, LSM ([5]; 400 mg versus placebo, Overall, p = 0.03, single oral dose, 12 MG patients): −1.5 points
Patients achieving a 2-point or larger improvement in QMG total score [5, 7]: 5 of 12
QMG responder rate (2-point or larger improvement from baseline compared to placebo) [5, 7]: 42%
QMG total score, Least Mean Square change improvement from baseline over placebo ([5]; 1200 mg group, 3-hour timepoint): 0.9 points
QMG total score, Least Mean Square change improvement from baseline over placebo ([5]; 1200 mg group, 5-hour timepoint): 1.1 points
QMG total score, Least Mean Square change improvement from baseline over placebo ([5]; 1200 mg group, overall, non-statistically significant): 1.0 points
QMG total score, CFB over placebo, Arithmetic mean ([5]; 1200 mg versus placebo, 3-hour): −1.2 points
QMG total score, CFB over placebo, LSM ([5]; 1200 mg versus placebo, 3-hour, p = 0.25): −0.9 points
QMG total score, CFB over placebo, Arithmetic mean ([5]; 1200 mg versus placebo, 5-hour): −1.5 points
QMG total score, CFB over placebo, LSM ([5]; 1200 mg versus placebo, 5-hour, p = 0.14): −1.1 points
QMG total score, CFB over placebo, LSM ([5]; 1200 mg versus placebo, Overall, p = 0.14): −1 points
QMG individual items: double vision, ptosis and dysarthria compared to placebo ([5]; both 400 mg and 1200 mg doses, non-statistically significant): improved
Patients meeting responder criterion (QMG) [5, 8]: up to 50%
QMG total Score after single doses [5, 8]: clinically significant improvements
QMG total score, LSM change from baseline improvement over placebo (given as positive improvement) ([5]; worded 'the NMD670 treatment arms', p=0.03 (Table 17: 400 mg overall)): 1.5 points
